Data on three molecules can be found in patent US8119589B2, “Modulation of CD4+ T cell responses by a tick saliva protein, Salp15 and polypeptides derived therefrom” (University of North Carolina at Charlotte, priority 2004, dated 2012).

Where a SMILES comes first, the peptide text is derived from it.

Test [1] relates to CD4+ T cells. Briefly: Lipid raft redistribution (CTB594 staining, receptor capping) in activated CD4+ T cells. It counts as cell-based, mouse. Conditions: pretreatment with peptide 0.2 μg/mL; anti-CD3/CD28 20 min. On the procedure: (§1) Naïve CD4+ T cells from C3H/HeN, Balb/c, and B10.BR mice were purified as previously described (Anguita et al., 2002). CD4+ T cells were preincubated in Click's modified Bruff's Medium (Sigma Chemical Co., St. Louis, Mo., U.S.A.) for 10 minutes at 37° C. with and without Salp15 (50 μg/mL) and stimulated for 20 min or the indicated times at 37° C. with 10 μg/mL of anti-CD3ε, 1 μg/mL of anti-CD28, and 10 μg/mL of anti-armenian and syrian hamster IgG (BD Biosciences Pharmingen, San Jose, Calif., U.S.A.). Jurkat (E6-1) cells were stimulated using 5 μg/mL of OKT3 mAb (eBioscience, San Diego, Calif., U.S.A.) and 1 μg/mL of anti-human CD28 cross linked with 5 μg/mL anti-mouse IgG for the indicated times.
For the visualization of lipid rafts, phospho-tyrosine, and cytoskeleton reorganization, CD4^+, CD8^+ or Jurkat cells were cytospun for 10 minutes at 1000 RPM onto positively charged microslides (Fisher Scientific, Hampton, N.H., U.S.A.). The cells were fixed with 3.7% paraformaldehyde (Sigma Chemical Co.) for 15 minutes and stained with CTB594 (Molecular Probes, Eugene, Oreg., U.S.A.), AlexaFluor488 labeled phalloidin (Molecular Probes) or (1:50) biotin-conjugated anti-p-Tyr (PY99) followed by Streptavidin-AlexaFluor594 (1:100, Molecular Probes). For p-LAT and p-PLCγ1 staining, fixed cells were treated with PBS containing 0.1% Triton-X 100 and 100 mM glycine for 15 min at room temperature and stained using rabbit p-LAT (Tyr^191) or rabbit anti-p-PLCγ1 (Tyr^783) probed with anti-rabbit IgG488 (Molecular Probes).
For receptor capping studies, mouse primary B and CD11^+ cells were purified by positive selection using biotin anti-mouse CD45R/B220 clone RA3-6B2 and biotin anti-mouse CD11b clone M1/70 (BD Biosciences Pharmingen) respectively, followed by incubation with magnetic microbeads. The cells were analyzed for receptor capping using 25 μg/mL anti-mouse IgM and 25 μg/mL anti-mouse CD16/CD32 respectively, cross-linked with 25 μg/mL of anti-rat IgG594 for 10 min in the presence or absence of 50 μg/mL of Salp15. […]

A further test deals with T1, sCD4 (Homo sapiens, UniProt P01730).
T1 construct: the extracellular four domains of CD4 (sCD4); purchased Research Diagnostics Inc., Flanders, N.J., U.S.A
In words: Microtiter binding of sCD4-HRP to plate-bound Salp15 and synthetic peptides. On the procedure: Purified sCD4 was coated overnight at 4° C. at the indicated concentrations in 0.1M sodium carbonate buffer (pH 9.5) in 96 well plates. Equimolar amounts of lysozyme were used as a non-specific control. The wells were washed, blocked with 10% FCS/PBS for 1 hr at R.T., and incubated with Salp15 (0.4 μM) for 2 hr at 37° C. Salp15 binding was detected by incubation with horseradish peroxidase (HRP)-conjugated anti-His antibody for 1 hr followed by microwell peroxidase substrate (KPL). The reaction was stopped by adding TMB stop solution (KPL). Chemically synthesized overlapping peptides of Salp15 were purchased from GenScript Corporation (Piscataway, N.J., U.S.A). To study the binding of Salp15 and peptides to sCD4, Salp15 (5 μg) and different peptides (0.5 μg) were coated. The wells were washed and blocked prior to incubation with sCD4-HRP (Research Diagnostics Inc., Flanders, N.J., U.S.A.). For competition assays, indicated concentrations of Salp15 or P11 were added to sCD4-HRP and incubated with plate bound P11 (0.1 μg). To estimate the effect of dithiothreitol (DTT) treatment of Salp15 on binding to sCD4, 0.5 μM Salp15 was treated with 10 mM DTT overnight and immobilized onto microtiter plate followed by blocking and incubation with sCD4-HRP.
Dissociation constants were determined by non-linear curve fit. The results are expressed as the mean±S.E. of 3 to 5 individual experiments.

For test [2], the system named is CD4+ T cells. In words: IL-2 production (capture ELISA) by CD4+ T cells activated with plate bound anti-CD3 and soluble anti-CD28. It counts as cell-based, mouse. Conditions: for Inhibition of CD4+ T cell IL-2 production: pretreatment with peptide, 24 hr of activation. On the procedure: FIG. 6D is a graph showing purified CD4^+ T cells were activated in vitro with plate bound anti-CD3 and soluble anti-CD28 in the absence or presence of Salp15 (50 μg/mL), P11, or P8. The supernatants were analyzed at 24 hr of activation for IL-2 levels by capture ELISA.
as §1
In general terms: ELISA stands for enzyme-linked immunosorbent assay.

On to `CC[C@H](C)[C@H](NC(=O)[C@H](Cc1c[nH]cn1)NC(=O)CNC(=O)[C@@H](NC(=O)[C@H](CS)NC(=O)[C@H](CCCCN)NC(=O)[C@H](CC(N)=O)NC(=O)[C@H](CCCCN)NC(=O)[C@H](CCC(=O)O)NC(=O)[C@H](C)NC(=O)[C@H](CS)NC(=O)[C@@H](NC(=O)[C@H](CCC(N)=O)NC(=O)CNC(=O)[C@H](CC(N)=O)NC(=O)[C@@H]1CCCN1C(=O)CN)[C@@H](C)O)C(C)C)C(=O)N1CCC[C@H]1C(=O)NCC(=O)N[C@@H](CS)C(=O)O` [Peptide P11] (H-GPNGQTCAEKNKCVGHIPGC-OH; N-terminus and C-terminus assumed), for which, in the test on CD4+ T cells [1], the “Lipid rafts clustering in response to T cell activation” value is “reduction”. Besides, at sCD4 (peptides 0.5 μg coated, sCD4-HRP), the “Binding of overlapping synthetic peptides to sCD4” value was “showed binding”. Further, in the test on CD4+ T cells [2], the “Activity for modulating naïve CD4+ T cell activation among the tested polypeptide fragments” value is listed as “highest activity” and the “Inhibition of CD4+ T cell IL-2 production” value is “dose dependent inhibition”.

On to “EKNKCVGHIPGC (listed as Ixodes scapularis) [Peptide P11-2]”, for which, in the test with sCD4, the “Saturable binding to sCD4 with increasing concentrations” value is “saturable binding”. Besides, the “Activity for modulating naïve CD4+ T cell activation among the tested polypeptide fragments” value in the test on CD4+ T cells [2] is “highest activity”.

As to “NCTFLCKHGNDVNVTLNLPE (listed as Ixodes scapularis) [Peptide P8]”, in the test on CD4+ T cells [1], the “Lipid rafts clustering in response to T cell activation” value is reported as “did not show any effect”. In the test with sCD4, the “Saturable binding to sCD4 with increasing concentrations” value is on record as “no binding”. In addition, the “Inhibition of CD4+ T cell IL-2 production” value in the test with CD4+ T cells [2] is “did not exert any inhibition”.
